In brackets after ≈: the same amount, converted by molar mass. Read-outs that look alike come from different tables or passages of the source.
What was measured:
[1] = system: PC-3 prostate cancer cells; test: Example T: sensitisation of PC-3 cells to doxorubicin, oxaliplatin, paclitaxel or vincristine, Wst1; format: cell-based, human; conditions: PC-3 cells, 72 hours; for viability at 0.4 µM: compound 0.4 μM alone; for Doxorubicin 3.5 μM: percent cell survival / Oxaliplatin 100 μM: percent cell survival / Paclitaxel 50 μM: percent cell survival / Vincristine 100 nM: percent cell survival: chemotherapy agent alone normalized to 100%
[2] = system: Cryptococcus neoformans strains; test: Example N: MIC and MFC (CLSI) against Cryptococcus neoformans; format: cell-based; parameters: MIC at 50% inhibition: unit not given here; conditions: for MIC / MFC: Cryptococcus neoformans, three clinical strains; for MIC: read-out: MIC 100%, Range, incubated for 72 hrs
Protocol: (§1) The objective of this study was to determine the antifungal activity of eight experimental compounds against a representative panel of fungal isolates, including Candida albicans, C. glabrata, Cryptococcus neoformans, Trichophyton rubrum, Aspergillus fumigatus, and Rhizopus spp. Antifungal activity was measured by minimum inhibitory concentration (MIC) and minimum fungicidal concentration (MFC).
(§2) Three recent clinical strains of each species, taken from the culture collection at the Center for Medical Mycology, Case Western University, were tested.
(§3) Compounds in powder form were dissolved in DMSO. Serial dilutions of each compound were then prepared in RPMI-1640 in a range of […].
(§4) MIC testing was performed according to the CLSI M27-A3 and M38-A2 standards for the susceptibility testing of yeasts and filamentous fungi, respectively (1, 2). Test isolates were subcultured from frozen slants onto potato dextrose agar plates (Trichophyton rubrum was subcultured onto oatmeal plates for conidia production) and checked for purity. Inocula were then prepared in RPMI-1640 (YNB for Cryptococcus) to a concentration of 0.5-2.5×10^3 colony-forming units (CFU)/ml or 0.4-5×10^4 conidia/ml for yeast and filamentous fungi, respectively.
(§5) MFC determinations were performed according to the modifications previously described by Canton et al. and Ghannoum and Isham. (3, 4) Specifically, the total contents of each clear well from the MIC assay were subcultured onto potato dextrose agar. To avoid antifungal carryover, the aliquots were allowed to soak into the agar and then were streaked for isolation once dry, thus removing the cells from the drug source.

[3] = system: PC3 human prostate cancer cells; test: Example S: in vitro anticancer screen, PC-3 cells, Wst1; format: cell-based; conditions: Homo sapiens, PC-3, approximately 20 hours, Wst1, read-out: PC-3, percent of cancer cell survival relative to vehicle treated cells
Method in brief: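 PC-3 cells, 2×10^4 cells/well, exposed ~20 h to vehicle or compound at 0.4, 0.5 or 2.5 μM as specified per compound. Wst1 dye added for 2 h; absorbance 450 nm (reference 630 nm), triplicates. Values are percent cell survival versus vehicle-treated cells.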

[4] = system: S. cerevisiae; test: Example I: Saccharomyces cerevisiae growth inhibition (OD 600 nm); format: cell-based; conditions: Saccharomyces cerevisiae, 18 hour incubation at 30° C., OD 600 nm, XLfit; for IC50: read-out: IC50, uM (50% inhibition of fungal growth); for MIC: read-out: MIC, uM (99% of inhibition of fungal growth)
[5] = system: Candida albicans strains; test: Example N: MIC and MFC (CLSI) against Candida albicans; format: cell-based; parameters: MIC at 50% inhibition / MIC at 100% inhibition: unit not given here; conditions: for MIC / MFC: Candida albicans, three clinical strains; for MIC: read-out: MIC 100%, Range
Protocol: as §1, §2, §3, §4, §5

[6] = system: Aspergillus fumigatus strains; test: Example N: MIC and MFC (CLSI) against Aspergillus fumigatus; format: cell-based; conditions: for cidal activity (MFC within 4 dilutions of the MIC), in words: 3 strains; for MIC50 / MIC: Aspergillus fumigatus; for MIC: read-out: MIC 100%; for MFC: range over Aspergillus fumigatus strains, in 48 hr
Protocol: as §1, §2, §3, §4, §5

[7] = Homo sapiens, Wst1, vehicle = 100, read-out: No Chemo: percent cell survival
[8] = compound 0.4 μM + doxorubicin 3.5 μM
[9] = compound 0.4 μM + oxaliplatin 100 μM
[10] = compound 0.4 μM + paclitaxel 50 μM
[11] = compound 0.4 μM + vincristine 100 nM

| MIC [2] | MIC ([5]; 24 hr) | MIC ([5]; 48 hr) | MIC50 ([6]; 24 h) | MIC ([6]; 24 h) | MIC50 ([6]; 48 h) | MIC ([6]; 48 h) | SMILES | viability at 0.4 µM [1, 7] | Doxorubicin 3.5 μM: percent cell survival [1, 8] | Oxaliplatin 100 μM: percent cell survival [1, 9] | Paclitaxel 50 μM: percent cell survival [1, 10] | Vincristine 100 nM: percent cell survival [1, 11] | MFC [2] | viability at 0.4 µM [3] | IC50 [4] | MIC [4] | MFC ([5]; 48 hr) | cidal activity (MFC within 4 dilutions of the MIC), in words [6] | MFC [6] | other results |
| --- | --- | --- | --- | --- | --- | --- | --- | --- | --- | --- | --- | --- | --- | --- | --- | --- | --- | --- | --- | --- |
| 2 µg/mL (≈ 5.12 µM) | 4 to 8 µg/mL (≈ 10.2 to 20.5 µM) | 8 µg/mL (≈ 20.5 µM) | 2 to 4 µg/mL (≈ 5.12 to 10.2 µM) | 4 to 8 µg/mL (≈ 10.2 to 20.5 µM) | 8 µg/mL (≈ 20.5 µM) | 16 µg/mL (≈ 40.9 µM) | CCCCCCOCCCCCCCCNc1ccnc2cc(Cl)ccc12 [AW, 7-Chloro-N-[8-(hexyloxy)octyl]quinolin-4-amine] | 38.2% | 59.5% | 70% | 51.3% | 33.6% | 2 to 8 µg/mL (≈ 5.12 to 20.5 µM) | 38.2% | 9.73 µM | 10.2 µM (≈ 4 µg/mL) | 8 to 32 µg/mL (≈ 20.5 to 81.8 µM) |  |  |  |
| 4 µg/mL (≈ 14.1 µM) | 0.5 to 2 µg/mL (≈ 1.76 to 7.03 µM) | 1 to 4 µg/mL (≈ 3.52 to 14.1 µM) | 0.5 to 1 µg/mL (≈ 1.76 to 3.52 µM) | 1 µg/mL (≈ 3.52 µM) | 1 to 2 µg/mL (≈ 3.52 to 7.03 µM) | 1 to 2 µg/mL (≈ 3.52 to 7.03 µM) | CCCCCCCCCCNc1ccnc2ccccc12 [Compound AG, N-(Decyl)quinolin-4-amine] |  |  |  |  |  | 8 to 16 µg/mL (≈ 28.1 to 56.2 µM) |  | 19.4 µM | 24.4 µM (≈ 6.93 µg/mL) | 2 to 4 µg/mL (≈ 7.03 to 14.1 µM) | cidal against one of the A. fumigatus strains (MRL 28397) |  | viability at 2.5 µM ([1]; Homo sapiens, compound 2.5 μM alone, Wst1, vehicle = 100, read-out: No Chemo: percent cell survival): 18.4%; Doxorubicin 3.5 μM: percent cell survival ([1]; compound 2.5 μM + doxorubicin 3.5 μM): 21.1%; Oxaliplatin 100 μM: percent cell survival ([1]; compound 2.5 μM + oxaliplatin 100 μM): 27.1%; Paclitaxel 50 μM: percent cell survival ([1]; compound 2.5 μM + paclitaxel 50 μM): 21.8%; Vincristine 100 nM: percent cell survival ([1]; compound 2.5 μM + vincristine 100 nM): 17.1%; viability at 2.5 µM ([3]; 2.5 μM): 18.4% |
| 0.25 to 2 µg/mL (≈ 0.876 to 7.01 µM) | 0.12 to 4 µg/mL (≈ 0.42 to 14 µM) | 1 to 4 µg/mL (≈ 3.5 to 14 µM) | < 0.12 µg/mL | 0.25 to 0.5 µg/mL (≈ 0.876 to 1.75 µM) | 0.25 to 1 µg/mL (≈ 0.876 to 3.5 µM) | 0.25 to 4 µg/mL (≈ 0.876 to 14 µM) | CCCCCCCCCCNc1ncnc2ccccc12 [Compound AH, N-(Decyl)quinazolin-4-amine] |  |  |  |  |  | 1 to 2 µg/mL (≈ 3.5 to 7.01 µM) |  |  |  | 4 to 32 µg/mL (≈ 14 to 112 µM) |  | > 64 µg/mL | MIC at 50% inhibition [2]: 0.004-2; cidal activity (MFC within 4 dilutions of the MIC), in words ([2]; 3 isolates): cidal against all 3 neoformans isolates |

| SMILES | MIC [2] | MIC ([5]; 24 hr) | MIC ([5]; 48 hr) | MIC50 ([6]; 24 h) | MIC ([6]; 24 h) | MIC50 ([6]; 48 h) | MIC ([6]; 48 h) | viability at 0.4 µM [1, 7] | Doxorubicin 3.5 μM: percent cell survival [1, 8] | Oxaliplatin 100 μM: percent cell survival [1, 9] | Paclitaxel 50 μM: percent cell survival [1, 10] | Vincristine 100 nM: percent cell survival [1, 11] | MFC [2] | viability at 0.4 µM [3] | IC50 [4] | MIC [4] | MFC ([5]; 48 hr) | cidal activity (MFC within 4 dilutions of the MIC), in words [6] | MFC [6] | other results |
| --- | --- | --- | --- | --- | --- | --- | --- | --- | --- | --- | --- | --- | --- | --- | --- | --- | --- | --- | --- | --- |
| CCCCOCCCCCCCCCCNc1ccnc2ccccc12 [AM, N-(10-Butoxydecyl)quinolin-4-amine] | 2 to 4 µg/mL (≈ 5.61 to 11.2 µM) | 2 to 4 µg/mL (≈ 5.61 to 11.2 µM) | 2 to 4 µg/mL (≈ 5.61 to 11.2 µM) | 0.5 to 1 µg/mL (≈ 1.4 to 2.8 µM) | 1 to 2 µg/mL (≈ 2.8 to 5.61 µM) | 2 to 4 µg/mL (≈ 5.61 to 11.2 µM) | 4 µg/mL (≈ 11.2 µM) | 58.5% | 24.7% | 25.4% | 54.8% | 26% | 8 µg/mL (≈ 22.4 µM) | 58.5% | 13.4 µM | 18.9 µM (≈ 6.73 µg/mL) | 4 µg/mL (≈ 11.2 µM) | cidal against one of the A. fumigatus strains (MRL 28397) | 4 to 32 µg/mL (≈ 11.2 to 89.7 µM) |  |
| CCCCCCOc1cccc(CNc2ccnc3ccccc23)c1 [Compound AC, N-[3-(Hexyloxy)benzyl]quinolin-4-amine] | 0.25 to 4 µg/mL (≈ 0.747 to 12 µM) | 0.12 to 1 µg/mL (≈ 0.359 to 2.99 µM) | 0.5 to 2 µg/mL (≈ 1.49 to 5.98 µM) | < 0.12 µg/mL | 0.25 to 0.5 µg/mL (≈ 0.747 to 1.49 µM) | 0.5 to 1 µg/mL (≈ 1.49 to 2.99 µM) | 1 µg/mL (≈ 2.99 µM) | 61.5% | 32.8% | 30% | 14% | 34.1% | 8 µg/mL (≈ 23.9 µM) | 61.5% | 27.7 µM | 47.7 µM (≈ 15.9 µg/mL) | 2 µg/mL (≈ 5.98 µM) |  |  | cidal activity (MFC within 4 dilutions of the MIC), in words ([5]; 3 strains): cidal against 2 of the 3 C. albicans strains tested; MIC at 50% inhibition ([5]; 24 hrs): <0.12-0.25; MIC at 100% inhibition ([5]; 24 hrs): <0.12-1; MIC at 50% inhibition ([5]; 48 hrs): <0.12-1; MIC at 100% inhibition ([6]; 48 hrs): 1 µg/mL (≈ 2.99 µM) |
